Entries after “also recorded” stand apart in the source; their conditions may differ.
Legend:
[1] = free drug; cited from earlier work
[2] = test system: A2780 human ovarian carcinoma xenografts; conditions: 5 mg/kg EPI equivalent, day 20, s.c. model; cited from earlier work
CD20 = target: T1, CD20 (Homo sapiens, UniProt P11836); assay: RTX-Cy5 binding on the surface of Ramos cells, with and without RTX pre-blocking
T1 construct: host or cells: Ramos Burkitt's lymphoma cells
T1 sequence (P11836 1-297): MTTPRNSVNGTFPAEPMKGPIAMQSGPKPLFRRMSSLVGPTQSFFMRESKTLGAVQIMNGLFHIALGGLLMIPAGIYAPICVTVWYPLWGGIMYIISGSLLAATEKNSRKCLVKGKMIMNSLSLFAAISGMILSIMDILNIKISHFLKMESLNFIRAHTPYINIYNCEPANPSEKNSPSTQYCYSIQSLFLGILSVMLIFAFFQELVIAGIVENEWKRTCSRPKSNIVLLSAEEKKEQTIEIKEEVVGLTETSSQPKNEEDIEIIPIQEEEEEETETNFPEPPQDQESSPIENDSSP
Protocol: Non-treated, cells in culture medium; RTX-Cy5, Ramos cells (2×10^5) were treated with 1 μg RTX-Cy5 at 4° C. for 30 min; RTX Blocked+RTX-Cy5, after pre-blocking by 10 μg RTX at 4° C. for 30 min, 1 μg RTX-Cy5 was added and incubated at 4° C. for 30 min. The cells were analyzed by flow cytometry. Data are reported as MFI, mean fluorescence intensity.
To ensure CD-20 antigen expression on the surface of the Ramos cells used, the Ramos cells were exposed to RTX labeled with Cy5 (RTX-Cy5). […] This confirmed the expression of CD20 on the surface of the Ramos cells, and their specific binding affinity to RTX.

[3] = test system: Ramos B-cell lymphoma tumors; conditions: i.v., 4 doses at 3-day intervals, 20 mg/kg RTX or equivalent (EPI 1.5 mg/kg)
Protocol: Ramos cells (5×10^6) in 200 μl of PBS were subcutaneously inoculated in the right flank of 7- to 9-wk-old male NOD SCID mice. Tumor size was measured with a caliper, and tumor volume was calculated according to the formula: Tumor volume (mm^3)=½×length×[…], where the length (mm) is the longest and the width (mm) is the shortest dimension of the tumor. When the average tumor size reached 150±50 mm^3, treatment was initiated (n=4-5). […] Body weight variation was computed by the equation: variation=(WDayn−WDay0)/WDay0×100%. […] Saline was used as non-treated control. […] The data are presented as mean±SD (n=4-5).
NOD SCID mice were subcutaneously implanted with Ramos cells (5×10^6 cells/200 μl saline) into the right flank. […] Saline was injected as control. […] Mice were treated with 4 doses at 3-day intervals.
In addition, body weight of the mice was closely recorded during and after treatment. […] Four-doses were administered on days 11, 14, 17 and 20.

Ramos cells = assay: In vitro cytotoxicity toward Ramos cells, CCK-8 assay; type: cell-based, human; conditions: 48 h
Protocol: The cytotoxicity of antibody and antibody-polymer-drug conjugates against Ramos cells was measured by CCK-8 assay (Dojindo). The cells were seeded in 96-well plates at the density of 10,000 cells (200 μl) per well in RMPI-1640 media containing 10% FBS. After 24 h, RTX, RTX-EPI RTX-P-EPI, mixture of RTX with P-EPI and IgG-P-EPI (0.3 mg/ml×15 μl for antibody) in medium was added and incubated at 37° C. for 48 h. The number of viable cells was estimated using CCK-8 kit according to the manufacturer's protocol. In brief, 50 μl 5× diluted CCK-8 solution was added and incubated at 37° C., 5% CO2 for 4 h, the absorbance was measured using a microplate reader at 450 nm (630 nm as reference). Untreated control cells were set as 100% viable.
The cytotoxicity of RTX-P-EPI against Ramos cells was first evaluated at the concentration of 0.15 μM (related to RTX). Unconjugated RTX, non-specific conjugate IgG-P-EPI and directly conjugated with free drug (RTX-EPI) were used as controls. The Ramos cells were incubated with the samples for 48 h and evaluated by CCK-8 assay (FIG. 6).
10^4 Ramos cells were seeded in each well of 96-well plates in 200 μl RPMI-1640 media containing 10% FBS. Different samples (0.3 mg/ml×15 μl) were added and incubated at 37° C. in a humidified atmosphere of 5% CO2 (v/v). After 48 h, the number of viable cells was estimated using CCK-8 kit at 450 nm (630 nm as reference). […]

Raji cells = assay: Apoptosis induction in Raji cells, Annexin V/PI staining; type: cell-based, human; conditions: RTX alone
Protocol: Incubation time was 48 h.
Percentage of apoptotic cells was quantified by flow cytometry. All data are presented as mean±SD (n=3).
This raises the likelihood that this system will be efficient in the treatment of RTX-resistant disease.

[4] = Biodistribution of 125I-labeled conjugates in mice bearing s.c. Ramos tumors; type: in vivo, male NOD SCID mice; conditions: 72 h after intravenous injection
Protocol: For biodistribution study, 7-9 week-old male NOD SCID mice bearing s.c. Ramos tumors received intravenous injection of ^125I labeled RTX, RTX-P-EPI, or IgG-P-EPI (0.1 mg, 20 μCi per mouse). At 72 and 96 h after administration, the mice were sacrificed. Various tissues (heart, liver, spleen, lung, kidney, stomach, intestine, muscle, bone, brain and tumor) were harvested, weighed, and counted for radioactivity with Gamma Counter (Packard). Uptake of the conjugate was calculated as the percentage of the injected dose per gram of tissue (% ID/g). Data are presented as mean±standard deviation (n=3).
The biodistribution of RTX, RTX-P-EPI and IgG-P-EPI labeled by ^125I in male NOD SCID mice bearing s.c. xenograft tumor model was also compared.

[5] = Blood pharmacokinetics of 125I-labeled conjugates; type: in vivo, male NOD SCID mice; conditions: i.v. 3.5 mg/kg single dose
Protocol: The conjugates were radioiodinated by the Iodogen method as previously described (Liu et al., 2009). 7-9 week-old healthy male NOD/SCID mice (n=3) were intravenously injected with ^125I labeled RTX, RTX-P-EPI or IgG-P-EPI conjugates (0.1 mg, 20 μCi per mouse), respectively. At predetermined intervals, blood samples (10 μl) were taken from the tail vein, and the radioactivity of each sample was measured with Gamma Counter (Packard).
The pharmacokinetic properties of ^125I labeled RTX, RTX-P-EPI and IgG-P-EPI were evaluated in male NOD SCID mice. Antibody was radiolabeled by ^125I and i.v. injected at 3.5 mg/kg (based on antibody for RTX, RTX-P-EPI, and IgG-P-EPI) single dose.

low-grade NHL = conditions: disease progression or relapse after prior RTX; cited from earlier work

In the case of `COc1cccc2c1C(=O)c1c(O)c3c(c(O)c1C2=O)C[C@@](O)(C(=O)CO)C[C@@H]3O[C@H]1C[C@H](N)[C@@H](O)[C@H](C)O1` [EPI, epirubicin], the terminal half-life [1] is given as 9 to 20 min and the “tumor size relative to baseline” value [2] is given as 1772±840 % of the baseline.
In the case of RTX-Cy5, the “Cy5 signal of Ramos cells incubated with RTX-Cy5” value (CD20; 1 μg RTX-Cy5, 4° C., 30 min) was “high Cy5 signal” and the “Cy5 signal after CD20 receptors were blocked with over-saturation dose of RTX” value (CD20; pre-blocking by 10 μg RTX, then 1 μg RTX-Cy5) was “no Cy5 signal detectable”.
In the case of “RTX-EPI: control conjugate in which EPI was directly attached to RTX via maleimide, EPI/RTX 3.1”, the “antitumor effect (in words)” value [3] was “marginal effects” and the “kill of Ramos cells” value (Ramos cells; 0.15 μM (related to RTX)) was 18%.
With Rituximab [RTX, reference compound] the “change of apoptosis level on increase of antibody concentration from 0.2 μM to 2 μM” value (Raji cells) was “did not significantly enhance the apoptosis level; also recorded: did not increase”, the “antitumor effect (in words)” value [3] was “marginal effects” and the “cytotoxicity against Ramos cells (in words)” value (Ramos cells; 0.15 μM) was “nearly undetectable”. For the same compound, the “level in the tumor” value [4] was 0.71 % ID/g tissue, the “AUC (total area under the blood concentration versus time curve)” value [5] was 716.46 ± 66.64 % ID h/mL and the “patients responding to RTX re-treatment” value (low-grade NHL) was 40%.
